The values that follow come from PubChem BioAssay AID200 (DTP/NCI, 2004).

Several values for one entry are separate records, joined by “and”; a condition that tells them apart may be missing. Equal entries are not always repeated. Toxic doses and inconclusive results are not listed.

The test system of this test is B6C3F1 mice, B16 melanoma ip, median survival T/C. The test is described as follows: NCI In Vivo Anticancer Drug Screen. Data for tumor model B16 Melanoma (intraperitoneal) in B6C3F1 mice. To be noted: endpoint: median survival time, higher = longer survival. In a few lines:
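Values are T/C ratios: the measurement in treated animals divided by that in vehicle-treated controls, using survival or tumor size in mice carrying transplantable tumors.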

Where [1] appears, read: dose: 100.0 mg/kg/injection, schedule: Q01DX009 (ip), vehicle: Klucel (hydroxypropylcellulose) (HPC).
The mark [2] stands for this setting: dose: 200.0 mg/kg/injection, schedule: Q01DX009 (ip), vehicle: Klucel (hydroxypropylcellulose) (HPC).
Setting [3] is: dose: 25.0 mg/kg/injection, schedule: Q01DX009 (ip), vehicle: Klucel (hydroxypropylcellulose) (HPC).
Where [4] appears, read: dose: 50.0 mg/kg/injection, schedule: Q01DX009 (ip), vehicle: Klucel (hydroxypropylcellulose) (HPC).
[5] abbreviates: dose: 1.56 mg/kg/injection, schedule: Q01DX009 (ip), vehicle: saline with Tween-80.
The mark [6] stands for this setting: dose: 12.5 mg/kg/injection, schedule: Q01DX009 (ip), vehicle: saline with Tween-80.
Setting [7] is: dose: 25.0 mg/kg/injection, schedule: Q01DX009 (ip), vehicle: saline with Tween-80.
Setting [8] is: dose: 50.0 mg/kg/injection, schedule: Q01DX009 (ip), vehicle: saline with Tween-80.

Consider `O=C1C2CC(CN3CCCCC23)C2CCCCN12` (centres undefined), for which the T/C reads like this: (dose: 37.5 mg/kg/injection, schedule: Q01DX009 (ip), vehicle: saline) 104 % of control; (dose: 75.0 mg/kg/injection, schedule: Q01DX009 (ip), vehicle: saline) 105 % of control; (dose: 150.0 mg/kg/injection, schedule: Q01DX009 (ip), vehicle: saline) 97 % of control.

For `COc1cccc2c1C(=O)c1c(O)c3c(c(O)c1C2=O)CC(O)(C(C)=O)CC3OC1CC(NC(=O)C(CCCCN)NC(=O)C2CCCN2)C(O)C(C)O1` (centres undefined), the T/C was 112 % of control (dose: 1.25 mg/kg/injection, schedule: Q01DX001 (ip), vehicle: water); 110 % of control (dose: 2.5 mg/kg/injection, schedule: Q01DX001 (ip), vehicle: water); 176 % of control (dose: 20.0 mg/kg/injection, schedule: Q01DX001 (ip), vehicle: water); 267 % of control (dose: 40.0 mg/kg/injection, schedule: Q01DX001 (ip), vehicle: water).

`Clc1cc(Cl)nc(N2CC2)n1`: the T/C is 108 % of control (dose: 2.5 mg/kg/injection, schedule: Q01DX009 (ip), vehicle: saline with Tween-80); 102 % of control (dose: 5.0 mg/kg/injection, schedule: Q01DX009 (ip), vehicle: saline with Tween-80); 106 % of control (dose: 10.0 mg/kg/injection, schedule: Q01DX009 (ip), vehicle: saline with Tween-80).

As to `CC(C)(C)OC(=O)N(C=O)C(Cc1c[nH]c2ccccc12)C(=O)O` (centres undefined), the T/C was 94 % of control under setting [1]; 88 % of control under setting [2]; 86 % of control (dose: 400.0 mg/kg/injection, schedule: Q01DX009 (ip), vehicle: Klucel (hydroxypropylcellulose) (HPC)).

For the molecule `C=CCOc1cc2c(cc1C(C)c1ccc(OC)cc1)OCO2` (centres undefined), the T/C runs as follows: under setting [3], 120 % of control; under setting [4], 124 % of control and 99 % of control; under setting [1], 108 % of control; under setting [2], 115 % of control.

Take `COC1C(C)OC(OC2CC(C)(O)Cc3cc4c(c(O)c32)C(=O)c2c(O)cc3c(c2C4=O)OC2OC3(C)C(O)C(N(C)C)C2O)C(OC)C1(C)OC` (centres undefined): the T/C reads like this: (dose: 0.16 mg/kg/injection, schedule: Q01DX009 (ip), vehicle: other) 92 % of control; (dose: 0.31 mg/kg/injection, schedule: Q01DX009 (ip), vehicle: other) 95 % of control and 102 % of control; (dose: 0.62 mg/kg/injection, schedule: Q01DX009 (ip), vehicle: other) 113 % of control; (dose: 0.63 mg/kg/injection, schedule: Q01DX009 (ip), vehicle: other) 116 % of control and 124 % of control and 97 % of control; (dose: 5.0 mg/kg/injection, schedule: Q01DX009 (ip), vehicle: other) 157 % of control and 175 % of control.

Consider `Cc1c2c(ccc3ccccc32)c[n+]2ccccc12`, for which the T/C was 89 % of control (dose: 1.56 mg/kg/injection, schedule: Q01DX009 (ip), vehicle: saline); 103 % of control (dose: 3.12 mg/kg/injection, schedule: Q01DX009 (ip), vehicle: saline); 105 % of control (dose: 6.25 mg/kg/injection, schedule: Q01DX009 (ip), vehicle: saline); 108 % of control (dose: 12.5 mg/kg/injection, schedule: Q01DX009 (ip), vehicle: saline); 108 % of control (dose: 25.0 mg/kg/injection, schedule: Q01DX009 (ip), vehicle: saline).

For the molecule `CC(NC(=O)c1ccccc1)C(=O)O` (centres undefined), the T/C is 97 % of control (dose: 40.0 mg/kg/injection, schedule: Q01DX009 (ip), vehicle: saline with Tween-80) and 90 % of control (dose: 80.0 mg/kg/injection, schedule: Q01DX009 (ip), vehicle: saline with Tween-80).

Take `Nc1nc(N)c2c(ccc3c2ccn3Cc2cccc([N+](=O)[O-])c2)n1`: the T/C is 107 % of control (dose: 0.19 mg/kg/injection, schedule: Q01DX009 (ip), vehicle: saline with Tween-80); 102 % of control (dose: 0.2 mg/kg/injection, schedule: Q01DX009 (ip), vehicle: saline with Tween-80); 98 % of control (dose: 0.38 mg/kg/injection, schedule: Q01DX009 (ip), vehicle: saline with Tween-80); 101 % of control (dose: 0.4 mg/kg/injection, schedule: Q01DX009 (ip), vehicle: saline with Tween-80); 116 % of control (dose: 0.75 mg/kg/injection, schedule: Q01DX009 (ip), vehicle: saline with Tween-80); 103 % of control (dose: 0.78 mg/kg/injection, schedule: Q01DX009 (ip), vehicle: saline with Tween-80). The T/C runs as follows: (dose: 1.5 mg/kg/injection, schedule: Q01DX009 (ip), vehicle: saline with Tween-80) 93 % of control and 100 % of control; under setting [5], 99 % of control; (dose: 3.0 mg/kg/injection, schedule: Q01DX009 (ip), vehicle: saline with Tween-80) 112 % of control and 103 % of control; (dose: 6.0 mg/kg/injection, schedule: Q01DX009 (ip), vehicle: saline with Tween-80) 108 % of control and 116 % of control.

As to `O=C1c2ccccc2CCC1Cl` (centres undefined), the T/C is 87 % of control (dose: 1.5 mg/kg/injection, schedule: Q01DX009 (ip), vehicle: DMSO); 86 % of control and 87 % of control and 88 % of control (dose: 3.0 mg/kg/injection, schedule: Q01DX009 (ip), vehicle: DMSO); 89 % of control (dose: 12.0 mg/kg/injection, schedule: Q01DX009 (ip), vehicle: DMSO); 91 % of control (dose: 1.2 micrograms/kg/injection, schedule: Q01DX009 (ip), vehicle: DMSO); 86 % of control (dose: 2.5 micrograms/kg/injection, schedule: Q01DX009 (ip), vehicle: DMSO); 87 % of control (dose: 5.0 micrograms/kg/injection, schedule: Q01DX009 (ip), vehicle: DMSO). Further, the T/C (dose: 10.0 micrograms/kg/injection, schedule: Q01DX009 (ip), vehicle: DMSO) is 88 % of control.

Consider `O=c1nc(-c2ccco2)sc(=O)[nH]1`, for which the T/C reads like this: under setting [3], 95 % of control; under setting [4], 99 % of control; under setting [1], 118 % of control; under setting [2], 112 % of control.

As to `COCC12CCC(OC)C34C5CC6(O)C(OC)CC(OC(C)=O)(C5C6OC(=O)c5ccccc5)C(C(OC)C13)C4N(C)C2` (centres undefined), the T/C by setting is: (dose: 15.0 micrograms/kg/injection, schedule: Q01DX009 (ip), vehicle: Klucel (hydroxypropylcellulose) (HPC)) 92 % of control; (dose: 30.0 micrograms/kg/injection, schedule: Q01DX009 (ip), vehicle: Klucel (hydroxypropylcellulose) (HPC)) 108 % of control; (dose: 60.0 micrograms/kg/injection, schedule: Q01DX009 (ip), vehicle: Klucel (hydroxypropylcellulose) (HPC)) 96 % of control; (dose: 120.0 micrograms/kg/injection, schedule: Q01DX009 (ip), vehicle: Klucel (hydroxypropylcellulose) (HPC)) 99 % of control.

For the molecule `COc1ccc2c(c1)n([O-])c1ccccc1[n+]2=O`, the T/C by setting is: under setting [6], 103 % of control; (dose: 18.0 mg/kg/injection, schedule: Q01DX009 (ip), vehicle: saline with Tween-80) 121 % of control; under setting [7], 108 % of control; (dose: 30.0 mg/kg/injection, schedule: Q01DX009 (ip), vehicle: saline with Tween-80) 101 % of control and 103 % of control; under setting [8], 113 % of control and 114 % of control; (dose: 83.33 mg/kg/injection, schedule: Q01DX009 (ip), vehicle: saline with Tween-80) 108 % of control and 115 % of control.

`O=[N+]([O-])c1ccc(N2CCOCC2)c2c1no[n+]2[O-]`: the T/C was 99 % of control under setting [6]; 101 % of control under setting [7]; 98 % of control under setting [8]; 104 % of control (dose: 100.0 mg/kg/injection, schedule: Q01DX009 (ip), vehicle: saline with Tween-80).

Turning to `COC1=C(NC(C)=O)C(=O)c2nc(-c3nc(C(=O)O)c(C)c(-c4ccc(OC)c(OC)c4O)c3N)ccc2C1=O`, the T/C (dose: 6.25 mg/kg/injection, schedule: Q01DX009 (ip), vehicle: Klucel (hydroxypropylcellulose) (HPC)) was 103 % of control; the T/C (dose: 12.5 mg/kg/injection, schedule: Q01DX009 (ip), vehicle: Klucel (hydroxypropylcellulose) (HPC)) was 95 % of control; the T/C under setting [3] is 86 % of control; the T/C under setting [4] is 97 % of control.

Regarding `BrC1c2cccc3cccc(c23)C1Br` (centres undefined), the T/C was 123 % of control under setting [6] and 155 % of control under setting [8].

For the molecule `O=C(CCCN1CCC(C(O)c2ccc(F)cc2)CC1)c1ccc(F)cc1` (centres undefined), the T/C under setting [5] is 92 % of control; the T/C (dose: 3.12 mg/kg/injection, schedule: Q01DX009 (ip), vehicle: saline with Tween-80) is 96 % of control; the T/C (dose: 6.25 mg/kg/injection, schedule: Q01DX009 (ip), vehicle: saline with Tween-80) was 103 % of control; the T/C under setting [6] was 92 % of control.
